Data reported in patent US20220315933A1, “SYSTEMS AND METHODS FOR SINGLE-STRAND BREAK SIGNALING AND REPAIR IN A CELL-FREE SYSTEM AND METHODS OF IDENTIFYING MODULATORS OF SINGLE-STRAND BREAK SIGNALING AND REPAIR” (University of North Carolina Charlotte, priority 2017, published 2022).

Experiments:
ATR-Chk1 DDR pathway [1] = experiment: Defined SSB plasmid-induced checkpoint signaling in Xenopus HSS system (immunoblotting); type: biochemical, Xenopus laevis; conditions: for SSB-induced Chk1 phosphorylation (Chk1 P-S344): HSS with SSB plasmid 75 ng/μL, 30 min incubation, inhibitor added
Protocol: CTL or SSB plasmid was added to HSS at different concentrations as indicated, and incubated for 30 minutes. Extracts were examined via immunoblotting analysis for Chk1 phosphorylation (i.e., Chk1 P-Ser344) and total Chk1 (FIG. 8A). CTL or SSB plasmid was added to HSS at a final concentration of 75 ng/μL. After different time of incubation at room temperature, the extracts were examined via immunoblotting analysis (FIG. 8B). ATR inhibitor VE-822, ATM inhibitor KU55933, DNA-PK inhibitor NU7441, or recombinant geminin was added to HSS supplemented with CTL or SSB plasmid at a final concentration of […] for 30 minutes. Geminin or roscovitine was added to HSS supplemented with sperm chromatin and hydrogen peroxide. After a 45-min incubation, extracts were examined via immunoblotting analysis as indicated (FIG. 8F). CTL, SSB, or DSB plasmid was added to HSS at different concentrations as indicated. Samples were examined via immunoblotting analysis (FIG. 8G).
CTL or SSB plasmid was added to HSS with the presence or absence of VE-822. After 30-min incubation, Chk1 phosphorylation, RPA32 phosphorylation, and Rad17 phosphorylation were examined via immunoblotting analysis as indicated in the image in FIG. 9A. CTL or SSB plasmid was added to NPE with the presence or absence of VE-822 (ATR inhibitor) or Tautomycin (phosphatase inhibitor). Samples were examined via immunoblotting analysis as illustrated in FIG. 9B. For FIG. 9C, CTL or SSB plasmid was added to mock- or Pol alpha-depleted HSS. After 30-min incubation, samples were analyzed via immunoblotting analysis, as illustrated.
(§1) The care and use of Xenopus laevis was approved by the Institutional Animal Care and Use Committee (IACUC) of the University of North Carolina at Charlotte. The preparation of Xenopus LSS, HSS, and NPE were described previously (35,36,39, which are hereby incorporated by reference herein). […] DNA synthesis analysis was performed as previously described (11,35, which are hereby incorporated by reference herein). ImageQuat software was used to quantify the DNA synthesis from HSS/NPE system. […] DNA-bound fractions from the HSS system were isolated after spinning extracts through a sucrose cushion (0.9 M sucrose, 2.5 mM MgCl2, 50 mM KCl, 10 mM HEPES, pH7.7) at 10,000 rpm for 2 minutes at 4° C. with a swinging bucket.
To determine whether a defined SSB structure triggers a DDR pathway, different concentrations of SSB or CTL plasmid structure were added to HSS, followed by immunoblotting analysis after a 30-minute incubation.

ATR-Chk1 DDR pathway [2] = experiment: Plasmid-induced Chk1 phosphorylation in NPE (immunoblotting); type: biochemical, Xenopus laevis
Protocol: After 30-min incubation, Chk1 phosphorylation, RPA32 phosphorylation, and Rad17 phosphorylation were examined via immunoblotting analysis as indicated in the image in FIG. 9A. […] Samples were examined via immunoblotting analysis as illustrated in FIG. 9B. For FIG. 9C, CTL or SSB plasmid was added to mock- or Pol alpha-depleted HSS. After 30-min incubation, samples were analyzed via immunoblotting analysis, as illustrated.
as §1

SSB repair = SSB repair of SSB plasmid in the HSS system (agarose gel); type: biochemical, Xenopus laevis; conditions: SSB plasmid in HSS with or without VE-822; circular/(circular+nicked)
Protocol: FIGS. 6A-6D illustrate verification and analysis of the defined DNA structures. FIG. 6A is an image verifying the defined SSB structure on agarose gel (Ethidium bromide staining). CTL plasmid was added to HSS for different time. Then DNA samples were isolated and treated with or without Sbfl, and analyzed on agarose gel (Ethidium bromide staining) as shown in FIG. 6B. For FIG. 6C, the SSB plasmid was added to HSS with or without VE-822 for different time as indicated. SSB repair products were isolated and examined on agarose gel (Ethidium bromide staining). FIG. 6D is a graph quantifying SSB repair capacity (circular/(circular+nicked)×100) with or without VE-822 treatment in the HSS system from FIG. 6C.
Nuclease-free water was added to each reaction of HSS that was incubated with SSB or DSB plasmid to a total of 300 μL. Equal volume of phenol-chloroform was added to the mixture and resuspended up and down 5 times and spin for 5 minutes at 13,000 rpm at room temperature. The top aqueous layer was transferred to a new tube and repeat phenol-chloroform extraction. […] Then the purified DNA repair products were analyzed on agarose gel and stained with ethidium bromide. […]

U2OS cells = experiment: Hydrogen peroxide-induced ATR-Chk1 DDR in human U2OS cells (immunoblotting); type: cell-based; conditions: asynchronized U2OS cells; VE-822 5 μM 1 hour, then hydrogen peroxide 1.25 mM 4 hours
Protocol: FIGS. 11A-11B illustrate that hydrogen peroxide induces Chk1 phosphorylation and RPA32 phosphorylation in an ATR-dependent manner in human U2OS cells. FIG. 11A is a digital image of immunoblotting analysis of asynchronized U2OS cells treated with H2O2 and/or VE-822. Cell lysates were analyzed via immunoblotting analysis as indicated. G1 synchronized U2OS cells were treated with H2O2 and/or VE-822. Cell lysates were analyzed via immunoblotting analysis as indicated and illustrated in FIG. 11B.
Human U2OS cells were purchased from the American Type Culture Collection (ATCC) and cultured in Dulbecco's Modified Eagle Medium (DMEM, Life Technologies) supplemented with 10% fetal bovine serum (FBS, Invitrogen), penicillin (100 U/mL) and streptomycin (100 μg/mL, Life Technologies) in incubator at 37° C. and 5% CO2. […] Cells were treated with VE-822 (5 μM) in culture medium for 1 hour followed by hydrogen peroxide treatment (1.25 mM) for 4 hours. Then cells were collected and split for immunoblotting analysis and FACS analysis. For immunoblotting analysis, equal total proteins of cell lysates (10 μg per lane) were loaded and Tubulin was used for loading control. For FACS analysis, cells were further fixed and stained with DAPI followed by cell cycle profiling using FACS machine (BD LSRFortessa) following manufacturer's standard protocol.

ATR-Chk1 DDR pathway [3] = experiment: Hydrogen peroxide-induced Chk1 phosphorylation in HSS supplemented with sperm chromatin (immunoblotting); type: biochemical, Xenopus laevis; conditions: HSS with sperm chromatin and hydrogen peroxide, 45-min incubation
Protocol: FIGS. 8A-8G illustrate that the ATR-Chk1 DNA damage response pathway is induced by the defined SSB structure in the HSS system. CTL or SSB plasmid was added to HSS at different concentrations as indicated, and incubated for 30 minutes. Extracts were examined via immunoblotting analysis for Chk1 phosphorylation (i.e., Chk1 P-Ser344) and total Chk1 (FIG. 8A). CTL or SSB plasmid was added to HSS at a final concentration of 75 ng/μL. After different time of incubation at room temperature, the extracts were examined via immunoblotting analysis (FIG. 8B). ATR inhibitor VE-822, ATM inhibitor KU55933, DNA-PK inhibitor NU7441, or recombinant geminin was added to HSS supplemented with CTL or SSB plasmid at a final concentration of […] for 30 minutes. Geminin or roscovitine was added to HSS supplemented with sperm chromatin and hydrogen peroxide. After a 45-min incubation, extracts were examined via immunoblotting analysis as indicated (FIG. 8F). CTL, SSB, or DSB plasmid was added to HSS at different concentrations as indicated. Samples were examined via immunoblotting analysis (FIG. 8G).
The care and use of Xenopus laevis was approved by the Institutional Animal Care and Use Committee (IACUC) of the University of North Carolina at Charlotte. […] ImageQuat software was used to quantify the DNA synthesis from HSS/NPE system. […]

O=c1cc(N2CCOCC2)oc2c(-c3cccc4c3sc3ccccc34)cccc12 [NU7441]
SSB-induced Chk1 phosphorylation (Chk1 P-S344) (ATR-Chk1 DDR pathway [1]): almost had no effect

C[C@@]1(CO)[C@H](O)CC[C@@]2(C)[C@H]1CC[C@H]1C[C@@H]3C[C@@]12CC[C@]3(O)CO [aphidicolin]
SSB-induced Chk1 phosphorylation (Chk1 P-S344) (ATR-Chk1 DDR pathway [1]): not affected

O=c1cc(-c2cccc3c2Sc2ccccc2S3)oc(N2CCOCC2)c1 [KU55933]
SSB-induced Chk1 phosphorylation (Chk1 P-S344) (ATR-Chk1 DDR pathway [1]): almost had no effect

CO[C@H]([C@H](O)CC(=O)[C@@H](C)[C@@H](O)CC[C@@H](C)[C@@H]1O[C@]2(CC[C@@H](C)[C@H](CC[C@H](C)C(C)=O)O2)CC[C@@H]1C)[C@H](OC(=O)C[C@@H](O)C1=C(C)C(=O)OC1=O)C(C)C [tautomycin]
SSB plasmid-triggered Chk1 phosphorylation in NPE (ATR-Chk1 DDR pathway [2]; with the presence of tautomycin, no detectable Chk1 phosphorylation without it): very robust

Nc1ccc2c3c(cccc13)C(=O)NC2=O [4-Amino-1,8-naphthalimide]
SSB-induced Chk1 phosphorylation (Chk1 P-S344) (ATR-Chk1 DDR pathway [1]): enhanced

CNCc1ccc(-c2cc(-c3nc(-c4ccc(S(=O)(=O)C(C)C)cc4)cnc3N)on2)cc1 [VE-822]
SSB-induced Chk1 phosphorylation (Chk1 P-S344) (ATR-Chk1 DDR pathway [1]): compromised
SSB-induced RPA32 phosphorylation (ATR-Chk1 DDR pathway [1]; HSS with SSB plasmid, 30 min): sensitive
SSB-induced Rad17 phosphorylation (ATR-Chk1 DDR pathway [1]; HSS with SSB plasmid, 30 min): sensitive
SSB repair in the HSS system (SSB repair): compromised
hydrogen peroxide-induced Chk1 phosphorylation (U2OS cells): prevented
hydrogen peroxide-induced RPA32 phosphorylation (U2OS cells): prevented
Chk1 phosphorylation events in NPE (SSB plasmid- and CTL plasmid-induced) (ATR-Chk1 DDR pathway [2]; NPE with the presence of tautomycin): inhibited

CC[C@H](CO)Nc1nc(NCc2ccccc2)c2ncn(C(C)C)c2n1 [rescovitine]
hydrogen peroxide-induced Chk1 phosphorylation in the HSS (ATR-Chk1 DDR pathway [3]): had no effect

B1: geminin: MCM helicase inhibitor recombinant geminin protein (protein, UniProt O75496 1-209, looked up)
Geminin: MNPSMKQKQEEIKENIKNSSVPRRTLKMIQPSASGSLVGRENELSAGLSKRKHRNDHLTSTTSSPGVIVPESSENKNLGGVTQESFDLMIKENPSSQYWKEVAEKRRKALYEALKENEKLHKEIEQKDNEIARLKKENKELAEVAEHVQYMAELIERLNGEPLDNFESLDNQEFDSEEETVEDSLVEDSEIGTCAEGTVSSSTDAKPCI
SSB-induced Chk1 phosphorylation (Chk1 P-S344) (ATR-Chk1 DDR pathway [1]): not impaired
hydrogen peroxide-induced Chk1 phosphorylation in the HSS (ATR-Chk1 DDR pathway [3]): had no effect
